Results: patent US12005050B2, “Methods for preventing or treating H. pylori infection” (TENNOR THERAPEUTICS (SUZHOU) LIMITED, priority 2022, dated 2024)

Key:
Helicobacter pylori = test: H. pylori eradication by urea breath test (UBT) (Example 1); type: in vivo; details: for Patients with UBT negative results: N = 10
Procedure: 40 asymptomatic healthy patients that are positive for Helicobacter pylori infection were admitted to the trial. The 40 patients were randomly allocated to four groups at a ratio of 1:1:1:1.
Different therapies were administered to the patients of each group according to the schedule below: • Group A: • Compound I capsule 200 mg/time (2 capsules, 100 mg/capsule), twice per day (BID); rabeprazole sodium enteric-coated tablet 20 mg/time (1 tablet, 20 mg/tablet), twice per day (BID) • Group B: • Compound I capsule 400 mg/time (4 capsules, 100 mg/capsule), twice per day (BID); rabeprazole sodium enteric-coated tablet 20 mg/time (1 tablet, 20 mg/tablet), twice per day (BID) • Group C: • Compound I capsule 600 mg/time (6 capsules, 100 mg/capsule), twice per day (BID); rabeprazole sodium enteric-coated tablet 20 mg/time (1 tablet, 20 mg/tablet), twice per day (BID) • Group D: • Compound I capsule 400 mg/time (4 capsules, 100 mg/capsule), twice per day (BID); rabeprazole sodium enteric-coated tablet 20 mg/time (1 tablet, 20 mg/tablet), twice per day (BID); amoxicillin capsule 1 g/time (4 capsules, 0.25 g/capsule), twice per day (BID)
All patients were admitted to the clinical research center 1 day before dosing (D-1 Day), randomly allocated to respective groups and completed examinations for safety and baseline indicators. From day 1 to day 14, respective therapies/drugs were orally administered to the patients within 30 minutes after breakfast and dinner. On day 15, the last dose was administered orally to the patients within 30 minutes after breakfast. During the trial, each patient was dosed for 29 times in total. All patients left the hospital after completing a safety tolerance assessment on day 17 and returned to the clinical research center for urea breath test (UBT) follow-up examination between days 44 and 50 to evaluate the effect of Helicobacter pylori eradication.
The initial analysis of eradication effect was based on the full data set, which is defined as all patients who were randomly selected and received at least one dose of the trial combination therapy.
The eradication effects in each trial group were evaluated by UBT tests (negative or positive) conducted at the baseline time point, on day 8 after drug administration, day 16 after drug administration and day 44-50 of follow-up visit. Descriptive analysis was done using frequency (percentage), and comparison between groups was made. Fisher precision test was used to conduct between-group comparison analysis. As an aid to the analysis, the UBT values were listed as mean, standard deviation, median, minimum, maximum, and deviation from the baseline.

[1] = human, in vivo
Procedure: The 40 patients were randomly allocated to four groups at a ratio of 1:1:1:1. […] The detection linear range was as below: • Compound I: Lower Limit Of Quantitation (LLOQ): 1.00 ng/mL; Upper Limit Of Quantitation (ULOQ): 1,000 ng/mL • Rabeprazole sodium: LLOQ: 2.00 ng/mL; […] […] Pharmacokinetics Evaluation Plasma drug concentrations of various groups at different time points were determined, including: arithmetic mean, standard deviation, minimum, median, maximum, geometric mean, coefficient of variation, and coefficient of geometric variation. The pharmacokinetic parameters calculated from the first and last administration were descriptively analyzed according to various trial groups, including: arithmetic mean, standard deviation, minimum value, median, maximum value, geometric mean, coefficient of variation, geometric coefficient of variation, etc. In addition, the accumulation index AUC0-tau, ss(D15)/AUC0-tau (D1) was calculated. […]

[2] = Solubility of drug substance; type: physicochemical

SMILES: CO[C@H]1/C=C/O[C@@]2(C)Oc3c(C)c(O)c4c(c3C2=O)C2=NC3(CCN(CCn5c([N+](=O)[O-])cnc5C)CC3)NC2=C(NC(=O)/C(C)=C\C=C\[C@H](C)[C@H](O)[C@@H](C)[C@@H](O)[C@@H](C)[C@H](OC(C)=O)[C@@H]1C)C4=O [Compound I, 4-Deoxy-3,4-[2-spiro-[1-[2-(2-methyl-5-nitro-imidazol-1-yl)ethyl]-piperidin-4-yl]]-(1H)-imidazo-(2,5-dihydro)rifamycin]
- Patients with UBT negative results (Helicobacter pylori; Day 8, Group A: Compound I 200 mg BID + rabeprazole sodium 20 mg BID): 7 (70.0) n(%)
- Patients with UBT negative results (Helicobacter pylori; Day 8, Group B: Compound I 400 mg BID + rabeprazole sodium 20 mg BID): 10 (100.0) n(%)
- Patients with UBT negative results (Helicobacter pylori; Day 8, Group C: Compound I 600 mg BID + rabeprazole sodium 20 mg BID): 8 (80.0) n(%)
- Patients with UBT negative results (Helicobacter pylori; Day 8, Group D: Compound I 400 mg BID + rabeprazole sodium 20 mg BID + amoxicillin 1 g BID): 7 (70.0) n(%)
- Patients with UBT negative results (Helicobacter pylori; Day 16, Group A: Compound I 200 mg BID + rabeprazole sodium 20 mg BID): 3 (30.0) n(%)
- Patients with UBT negative results (Helicobacter pylori; Day 16, Group B: Compound I 400 mg BID + rabeprazole sodium 20 mg BID): 5 (50.0) n(%)
- Patients with UBT negative results (Helicobacter pylori; Day 16, Group C: Compound I 600 mg BID + rabeprazole sodium 20 mg BID): 6 (60.0) n(%)
- Patients with UBT negative results (Helicobacter pylori; Day 16, Group D: Compound I 400 mg BID + rabeprazole sodium 20 mg BID + amoxicillin 1 g BID): 10 (100.0) n(%)
- Patients with UBT negative results (Helicobacter pylori; Follow up period (Day 44~50), Group A: Compound I 200 mg BID + rabeprazole sodium 20 mg BID): 0 (0.0) n(%)
- Patients with UBT negative results (Helicobacter pylori; Follow up period (Day 44~50), Group B: Compound I 400 mg BID + rabeprazole sodium 20 mg BID): 3 (30.0) n(%)
- Patients with UBT negative results (Helicobacter pylori; Follow up period (Day 44~50), Group C: Compound I 600 mg BID + rabeprazole sodium 20 mg BID): 4 (40.0) n(%)
- Patients with UBT negative results (Helicobacter pylori; Follow up period (Day 44~50), Group D: Compound I 400 mg BID + rabeprazole sodium 20 mg BID + amoxicillin 1 g BID): 8 (80.0) n(%)
- Eradication rate of H. pylori (Helicobacter pylori; Follow-up period (day 44 to day 50), Group D: Compound I 400 mg BID + rabeprazole sodium 20 mg BID + amoxicillin 1 g BID): 80%
- Effect of rabeprazole and amoxicillin on the pharmacokinetic profile of Compound I [1]: no significant effect
- Solubility of drug substance [2]: low solubility
